The results in this text go back to patent US5278161A, “Amino acid derivatives useful as renin inhibitors” (Hoffmann-La Roche Inc., priority 1990, dated 1994).

The target in the test is T1, human renin (Homo sapiens, UniProt P00797).
T1 sequence (P00797 67-406): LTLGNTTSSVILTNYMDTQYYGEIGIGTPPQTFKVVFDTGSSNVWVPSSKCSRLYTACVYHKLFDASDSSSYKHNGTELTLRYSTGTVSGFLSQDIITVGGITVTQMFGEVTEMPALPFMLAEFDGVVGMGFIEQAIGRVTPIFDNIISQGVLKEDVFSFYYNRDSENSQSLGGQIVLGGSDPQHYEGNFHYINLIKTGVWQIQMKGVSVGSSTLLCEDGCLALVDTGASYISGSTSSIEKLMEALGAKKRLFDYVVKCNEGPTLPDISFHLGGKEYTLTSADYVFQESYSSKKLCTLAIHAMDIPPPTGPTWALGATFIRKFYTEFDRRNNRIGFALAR
Briefly: In vitro test with pure human renin (inhibition of angiotensin I production from human tetradecapeptide renin substrate, RIA). The class given is biochemical. The conditions noted are these: pH 7.4 buffer, hTD substrate, three hours at 37° C., angiotensin I by RIA. How it is done:
IN VITRO TEST WITH PURE HUMAN RENIN
The test is carried out in Eppendorf test tubes. The incubation mixture consists of (1) 100 μl of human renin in buffer A (0.1M sodium phosphate solution, pH 7.4, containing 0.1% bovine serum albumin, 0.1% sodium azide and 1 mM ethylenediaminetetraacetic acid), sufficient for a renin activity of 2-3 ng of angiotensin I/ml/hr.; (2) 145 μl of buffer A; (3) 30 μl of 10 μM human tetradecapeptide renin substrate (hTD) in 10 mM hydrochloric acid; (4) 15 μl of dimethyl sulphoxide with or without inhibitor and (5) 10 μl of a 0.03 molar solution of hydroxyquinoline sulphate in water.
The samples are incubated for three hours at 37° C. or 4° C. in triplicate. 2×100 μl samples per experimental test tube are used in order to measure the production of angiotensin I via RIA (standard radioimmunoassay; clinical assay solid phase kit). Cross reactivities of the antibody used in the RIA are: angiotensin I 100%; angiotensin II 0.0013%; hTD (angiotensin I-Val-Ile-His-Ser-OH) 0.09%. The production of angiotensin I is determined by the difference between the experiment at 37° C. and that at 4° C.
The following controls are carried out:
(a) Incubation of hTD samples without renin and without inhibitor at 37° C. and 4° C. The difference between these two values gives the base value of the angiotensin I production.
(b) Incubation of hTD samples with renin, but without inhibitor at 37° C. and 4° C. The difference between these values gives the maximal value of angiotensin I production.
In each sample the base value of the angiotensin I production is subtracted from the angiotensin I production which is determined. The difference between the maximal value and the base value gives the value of the maximal substrate hydrolysis (=100%) by renin.
The results are given as IC50 values which denote that concentration of the inhibitor at which the enzymatic activity is inhibited by 50%. The IC50 values are determined from a linear regression curve from a logit-log plot.
Molecule `CC(C)Cc1nc(-c2cccnc2)cn2c(C(Cc3cnc[nH]3)C(=O)N[C@@H](CC3CCCCC3)[C@@H](O)[C@@H](O)C3CC3)nnc12` (single isomer, unassigned) [C] yielded an IC50 of 42 nM. On to `CCCc1nc(-c2cccnc2)cn2c(C(C(=O)N[C@@H](CC3CCCCC3)[C@@H](O)[C@@H](O)C3CC3)c3cccnc3)nnc12` (single isomer, unassigned) [A, (R or S)-N-[(1S,2R,3S)-1-(Cyclohexylmethyl)-3-cyclopropyl-2,3-dihydroxypropyl]-8-propyl-α,6-bis(3-pyridyl)-s-triazolo[4,3-a]pyrazine-3-acetamide], for which the IC50 stood at 61 nM. `CC(C)c1nc(-c2cccnc2)cn2c(C(Cc3c[nH]cn3)C(=O)N[C@@H](CC3CCCCC3)[C@@H](O)[C@@H](O)C3CC3)nnc12` (single isomer, unassigned) [B, (R or S)-N-[(1S,2R,3S)-1-(cyclohexylmethyl)-3-cyclopropyl-2,3-dihydroxypropyl]-8-isopropyl-α-(imidazol-4-ylmethyl)-6-(3-pyridyl)-s-triazolo[4,3-a]pyrazine-3-acetamide] came in with a 50% inhibitory concentration (IC50) of 43 nM. In turn, `CCCc1nc(-c2cccnc2)cn2c(C(Cc3cccnc3)C(=O)N[C@@H](CC3CCCCC3)[C@@H](O)[C@@H](O)CC(C)C)nnc12` (single isomer, unassigned) [D, (R or S)-N-[(1S,2R,3S)-1-(cyclohexylmethyl)-2,3-dihydroxy-5-methylhexyl]-8-propyl-6-(3-pyridyl)-α-(3-pyridylmethyl)-s-triazolo[4,3-a]pyrazine-3-acetamide] registered an IC50 of 57 nM.

As for `CCC(C)c1nc(-c2cccnc2)cn2c(C(=O)N[C@@H](CC3CCCCC3)[C@@H](O)[C@@H](O)C3CC3)nnc12` (mixture of isomers) [F, N-[(1S,2R,3S)-1-(cyclohexylmethyl)-3-cyclopropyl-2,3-dihydroxypropyl]-8-[(RS)-1-methylpropyl]-6-(3-pyridyl)-s-triazolo[4,3-a]pyrazine-3-carboxamide], the IC50 was 11 nM. The value for `CCC(C)c1nc(-c2cccnc2)cn2c(C(Cc3cccnc3)C(=O)N[C@@H](CC3CCCCC3)[C@@H](O)[C@@H](O)C3CC3)nnc12` (single isomer, unassigned) [E, (S or R)-N-[(1S,2R,3S)-1-(cyclohexylmethyl)-3-cyclopropyl-2,3-dihydroxypropyl]-8-[(RS)-1-methylpropyl]-α-(3-pyridylmethyl)-6-(3-pyridyl)-s-triazolo[4,3-a]pyrazine-3-acetamide] was 48 nM.

What is called IC50 is the concentration that gives 50% inhibition. Lower therefore signals greater potency in that assay.
